Data on two compounds can be found in patent publication US11319305B2, “Pyrimidine sulfamide derivative and preparation method and medical application thereof” (SHIJIAZHUANG SAGACITY NEW DRUG DEVELOPMENT CO., LTD., priority 2017, dated 2022).

A short description of data set [1]: Pharmacokinetics in beagle dogs. The class given is in vivo. From the text: Experimental embodiment 7: Evaluation on the pharmacokinetic of compounds in beagle dogs
Male beagle dogs were selected as the tested animals in this study, and the drug concentration in plasma of beagle dogs at different time points via intravenous injection or oral perfusion gastric administration of the test compounds was quantitatively measured using LC/MS/MS method to evaluate the pharmacokinetic characteristics of the test compounds in beagle dogs.
Beagle dog (male, 6-15 kg, more than 6 months old, Beijing Marshall Biotechnology Co., Ltd.).
A clear solution of the test compound was injected intravenously into beagle dogs (overnight fasting), or administrated orally to beagle dogs by gavage (overnight fasting). For intravenous administration, 500 μL of blood was collected from peripheral vessels at 0 hour (pre-dosing) and at 0.0833, 0.25, 0.5, 1, 2, 4, 6, 8 and 24 hours after dosing, which was then placed in an anticoagulation tube supplemented with EDTA-K2 (Suzuki Healthcare Medical Co., Ltd.). For oral gastric administration, 500 μL of blood was collected from peripheral vessels at 0 hour (pre-dosing) and at 0.25, 0.5, 1, 2, 4, 6, 8 and 24 hours after dosing, which was then placed in an anticoagulation tube supplemented with EDTA-K2. The mixture in the anticoagulation tube was vortexed to mix thoroughly, and then centrifuged at 13000 rpm for 10 minutes to collect the plasma. Plasma drug concentration was measured by LC/MS/MS method, and related pharmacokinetic parameters were calculated using WinNonlin™ Version 6.3 (Pharsight, Paul View, Calif.) pharmacokinetics software in non-room model linear logarithmic trapezoids method.

The target of the next data set is T1, CYP2C9 (Homo sapiens, UniProt P11712).
T1 construct: Mixed human liver microsomes (HLM) were purchased from Corning Inc; tissue Corning Inc; host or cells: pooled human liver microsomes
T1 sequence (P11712 whole entry): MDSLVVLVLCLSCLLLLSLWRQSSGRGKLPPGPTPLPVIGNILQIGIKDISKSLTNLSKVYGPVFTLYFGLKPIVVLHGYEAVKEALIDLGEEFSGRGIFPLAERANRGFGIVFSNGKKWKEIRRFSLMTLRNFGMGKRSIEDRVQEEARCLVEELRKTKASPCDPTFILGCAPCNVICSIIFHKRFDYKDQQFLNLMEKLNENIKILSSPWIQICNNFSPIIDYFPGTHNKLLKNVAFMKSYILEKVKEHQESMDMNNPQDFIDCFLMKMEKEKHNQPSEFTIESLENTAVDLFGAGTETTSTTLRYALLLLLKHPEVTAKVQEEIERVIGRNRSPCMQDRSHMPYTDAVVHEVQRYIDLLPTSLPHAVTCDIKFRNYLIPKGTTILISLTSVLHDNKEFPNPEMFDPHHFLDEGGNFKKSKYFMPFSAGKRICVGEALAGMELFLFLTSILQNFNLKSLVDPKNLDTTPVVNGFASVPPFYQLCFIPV
The experiment in a line: Human liver microsomal cytochrome P450 isozyme inhibition assay, CYP2C9. The class given is in vitro ADME. Conditions: human liver microsomes. As for the experimental part:
(§1) Experimental Embodiment 4: Human Liver Microsomal Cytochrome P450 Isozyme Inhibition Assay The purpose of the assay was to evaluate the inhibitory activity of the samples against human liver microsomal cytochrome P450 isozyme (CYP1A2, CYP2C9, CYP2C19, CYP2D6 and CYP3A4) using the 5-in-1 probe substrate of the CYP isozyme. Mixed human liver microsomes (HLM) were purchased from Corning Inc. (Steuben, N.Y., USA) and stored below −80° C. before use. The test compound working solution which has been diluted into serial concentrations was added to an incubation system containing human liver microsomes, probe substrates and circulating system cofactors, and a control containing solvent without the test compound was used as the enzyme activity control (100%). The concentration of the metabolite produced by the probe substrate in the sample was determined using a liquid chromatography-tandem mass spectrometry (LC-MS/MS) method. Nonlinear regression analysis was performed on the average percent activity versus concentration of subjects using SigmaPlot (V.11). The IC50 value was calculated by a three-parameter or four-parameter inverse-logarithmic equation.

The target in another data set is T2, CYP2C19 (Homo sapiens, UniProt P33261).
T2 construct: Mixed human liver microsomes (HLM) were purchased from Corning Inc; tissue Corning Inc; host or cells: pooled human liver microsomes
T2 sequence (P33261 whole entry): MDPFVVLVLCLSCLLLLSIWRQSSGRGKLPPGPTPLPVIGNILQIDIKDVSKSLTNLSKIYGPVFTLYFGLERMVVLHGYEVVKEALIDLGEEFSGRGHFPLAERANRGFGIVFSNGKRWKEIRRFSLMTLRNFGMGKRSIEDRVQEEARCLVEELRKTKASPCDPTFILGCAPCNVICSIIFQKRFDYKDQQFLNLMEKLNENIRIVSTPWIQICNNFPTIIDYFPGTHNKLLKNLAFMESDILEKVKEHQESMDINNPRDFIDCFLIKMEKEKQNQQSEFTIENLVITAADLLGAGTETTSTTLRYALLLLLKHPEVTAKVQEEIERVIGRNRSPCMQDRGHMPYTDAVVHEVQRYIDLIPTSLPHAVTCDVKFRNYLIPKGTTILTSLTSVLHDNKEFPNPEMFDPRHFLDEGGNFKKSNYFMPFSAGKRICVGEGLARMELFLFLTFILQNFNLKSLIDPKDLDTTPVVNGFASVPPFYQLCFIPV
The experiment in a line: Human liver microsomal cytochrome P450 isozyme inhibition assay, CYP2C19. The class given is in vitro ADME. Conditions: human liver microsomes. As for the experimental part:
as §1

The next data set addresses T3, CYP2D6 (Homo sapiens, UniProt P10635).
T3 construct: Mixed human liver microsomes (HLM) were purchased from Corning Inc; tissue Corning Inc; host or cells: pooled human liver microsomes
The experiment in a line: Human liver microsomal cytochrome P450 isozyme inhibition assay, CYP2D6. In kind it is in vitro ADME. The following applies: human liver microsomes. The procedure: as §1

The target of another data set is T4, CYP3A4 (Homo sapiens, UniProt P08684).
T4 construct: Mixed human liver microsomes (HLM) were purchased from Corning Inc; tissue Corning Inc; host or cells: pooled human liver microsomes
T4 sequence (P08684 whole entry): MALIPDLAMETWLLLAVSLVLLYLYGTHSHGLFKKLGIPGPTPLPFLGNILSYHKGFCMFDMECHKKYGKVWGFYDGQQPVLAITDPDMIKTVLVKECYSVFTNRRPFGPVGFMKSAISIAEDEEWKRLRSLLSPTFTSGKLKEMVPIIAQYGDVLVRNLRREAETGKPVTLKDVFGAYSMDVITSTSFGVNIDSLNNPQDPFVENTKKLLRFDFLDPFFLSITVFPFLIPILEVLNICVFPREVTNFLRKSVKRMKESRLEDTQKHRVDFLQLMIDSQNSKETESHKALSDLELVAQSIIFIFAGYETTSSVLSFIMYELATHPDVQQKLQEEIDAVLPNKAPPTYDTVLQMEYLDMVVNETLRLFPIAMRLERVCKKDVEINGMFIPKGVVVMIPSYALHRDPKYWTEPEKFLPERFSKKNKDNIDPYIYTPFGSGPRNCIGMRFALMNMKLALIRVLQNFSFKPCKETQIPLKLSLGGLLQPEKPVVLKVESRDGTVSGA
The experiment in a line: Human liver microsomal cytochrome P450 isozyme inhibition assay, CYP3A4. In kind it is in vitro ADME. The following applies: human liver microsomes. The procedure:
as §1

Data set [2] addresses T5, bile salt transport pump (BSEP) (Homo sapiens, UniProt O95342).
T5 construct: purchased Solvo Biotechnology SB-BSEP-Hi5-VT; host or cells: Hi5 insect cells (read from the product name; own knowledge)
The experiment in a line: Inhibition test on bile salt transfer pump (BSEP), taurocholic acid uptake in BSEP-Hi5-VT vesicles. In kind it is in vitro ADME.
Protocol: Prepared with buffer A, 8.16 mM ATP and 4.08 μM taurocholic acid were contained in 12 mL buffer A.
Prepared with buffer A, 8.16 mM AMP, 4.08 μM taurocholic acid 12 mL buffer A were contained in buffer A.
A solution containing BSEP-Hi5-VT 5 μg/μL was prepared with buffer A.
The compound was diluted to 100 mM with DMSO; then serially diluted 3-fold for an 11-point dilution; the minimum concentration was 0.169 μM.
Positive reference Glyburide was diluted to 20 mM with DMSO; then serially diluted 2-fold for an 11-point dilution; the minimum concentration was 19.5
0.3 μL of a solution of the compound in DMSO or a diluted DMSO solution were transferred into corresponding wells of the compound plate using ECHO, respectively.
14.7 μL of ATP buffer was added to the compound and the corresponding wells of zero percent effect (ZPE), respectively.
14.7 μL of AMP buffer was added to the corresponding wells of 100% effect (HPE), respectively.
The plate was shaked for 10 minutes at 25° C.
15 μL of BSEP-H15-VT Vesicle solution was added to all wells, respectively, and the plate was shaked for another 40 minutes at 25° C.
6.5 μL 0.5 M ethylenediaminetetraacetic acid (EDTA) solution was added to all wells immediately, followed by addition of 65 μL of buffer B, and the whole reaction was completed.
7.95 μL of liquid was transferred to the filter plate from the compound plate at the end of the reaction using an instrument.
After placing the liquid receiving plate under the filter plate, the liquid was removed using a centrifuge and the receiving plate liquid was discarded.
9.90 μL of buffer B was added to the filter plate. After placing the liquid receiving plate under the filter plate, the liquid was removed using a centrifuge, and the receiving plate liquid was discarded, and filter plate was washed for three times in total.
The filter plate was dried overnight.
On the next day, 80 μL of methanol/water (80/20, volume ratio) solution was added to the filter plate.
The plate was shaked for 15 minutes after the filter plate was attached to the membrane.
A new liquid receiving plate was placed under the filter plate, and the filter plate was centrifuged for 5 minutes, and all liquids in the filter plate were filtrated into the receiving plate.
15 μL of internal standard solution was added to each wells in the liquid receiving plate, and the plate was sealed with a membrane.
The content of taurocholic acid in the receiving plate was detected using LC/MS/MS.
Several concentrations were tested in each experiments. The data were analyzed using Prism to generate a concentration-response curve, and IC50 values of the compounds were calculated.

The subject of data set [3] is human liver microsomal cytochrome P450 isozyme (CYP1A2, CYP2C9, CYP2C19, CYP2D6 and CYP3A4). The data set can be described thus: Human liver microsomal cytochrome P450 isozyme inhibition assay, summary over the main isozymes. In kind it is in vitro ADME. As for the experimental part: as §1
The mark [4] stands for this setting: male, dog, plasma, intravenous injection 1 mg/kg.

T5 sequence (O95342 whole entry): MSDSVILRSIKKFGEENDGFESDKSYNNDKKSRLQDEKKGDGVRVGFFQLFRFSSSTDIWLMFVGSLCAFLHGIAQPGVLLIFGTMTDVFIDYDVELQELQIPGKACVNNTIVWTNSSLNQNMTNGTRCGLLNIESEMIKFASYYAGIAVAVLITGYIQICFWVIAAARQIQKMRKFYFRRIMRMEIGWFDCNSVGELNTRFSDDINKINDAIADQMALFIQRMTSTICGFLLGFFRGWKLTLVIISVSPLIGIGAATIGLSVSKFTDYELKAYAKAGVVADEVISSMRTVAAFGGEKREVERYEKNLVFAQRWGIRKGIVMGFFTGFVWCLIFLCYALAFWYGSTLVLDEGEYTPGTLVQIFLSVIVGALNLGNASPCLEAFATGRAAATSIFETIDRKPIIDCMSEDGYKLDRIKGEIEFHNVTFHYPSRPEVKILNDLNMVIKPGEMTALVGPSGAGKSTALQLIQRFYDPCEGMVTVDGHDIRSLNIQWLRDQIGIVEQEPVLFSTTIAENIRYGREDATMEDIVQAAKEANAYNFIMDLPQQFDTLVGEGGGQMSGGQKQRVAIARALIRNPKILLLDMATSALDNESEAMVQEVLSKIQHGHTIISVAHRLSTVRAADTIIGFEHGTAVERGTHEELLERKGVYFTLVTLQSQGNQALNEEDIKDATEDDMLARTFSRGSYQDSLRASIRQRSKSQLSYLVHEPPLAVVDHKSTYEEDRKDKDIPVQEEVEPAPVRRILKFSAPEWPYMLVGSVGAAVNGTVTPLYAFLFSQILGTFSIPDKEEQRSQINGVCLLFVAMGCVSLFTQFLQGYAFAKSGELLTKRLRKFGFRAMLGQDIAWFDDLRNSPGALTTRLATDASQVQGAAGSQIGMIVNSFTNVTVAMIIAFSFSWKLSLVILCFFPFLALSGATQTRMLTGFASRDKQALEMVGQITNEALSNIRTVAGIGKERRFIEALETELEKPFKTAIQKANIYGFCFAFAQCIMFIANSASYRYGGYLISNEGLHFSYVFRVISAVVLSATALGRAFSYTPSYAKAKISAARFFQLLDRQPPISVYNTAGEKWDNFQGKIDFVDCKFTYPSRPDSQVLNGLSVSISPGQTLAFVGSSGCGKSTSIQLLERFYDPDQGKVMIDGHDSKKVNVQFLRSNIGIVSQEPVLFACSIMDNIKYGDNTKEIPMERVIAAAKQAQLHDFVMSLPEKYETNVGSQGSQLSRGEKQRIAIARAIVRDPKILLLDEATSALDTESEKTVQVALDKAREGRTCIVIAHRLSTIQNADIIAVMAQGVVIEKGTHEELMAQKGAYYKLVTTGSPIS
T3 sequence (P10635 whole entry): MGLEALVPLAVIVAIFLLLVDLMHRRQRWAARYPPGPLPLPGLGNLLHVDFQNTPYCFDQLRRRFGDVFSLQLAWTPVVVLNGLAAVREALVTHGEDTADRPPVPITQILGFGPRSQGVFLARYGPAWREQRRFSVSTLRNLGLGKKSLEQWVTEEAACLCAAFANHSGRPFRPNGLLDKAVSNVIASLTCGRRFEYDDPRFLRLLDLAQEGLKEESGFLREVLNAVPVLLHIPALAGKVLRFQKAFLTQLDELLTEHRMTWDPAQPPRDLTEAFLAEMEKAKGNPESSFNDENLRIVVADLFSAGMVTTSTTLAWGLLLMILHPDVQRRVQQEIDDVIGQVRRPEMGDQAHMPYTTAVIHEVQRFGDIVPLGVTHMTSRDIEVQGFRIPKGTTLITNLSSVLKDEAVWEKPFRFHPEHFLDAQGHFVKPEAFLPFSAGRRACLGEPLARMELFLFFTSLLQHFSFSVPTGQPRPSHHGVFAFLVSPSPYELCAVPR

`NS(=O)(=O)Nc1ncnc(OCCOc2ncc(Br)cn2)c1-c1ccc2c(c1)OCO2` [WX001]: the “The area under the plasma concentration time curve” value (“The area” below) in data set [1] (intravenous injection 1 mg/kg) was found to be 46.94 µM·h. The bioavailability in data set [1] (male, beagle, dog, plasma, po, 3 mg/kg, oral administration 3 mg/kg, read-out: Bioavailability F) was more than 50%. In data set [1] (setting [4]), this compound had a half-life of 2.31 h. Moreover, in data set [1] (oral administration 3 mg/kg), the Peak concentration was 16.20 µM, the Peak time was 0.38 h and the “The area” value came out at 73.77 µM·h. Besides, in data set [1] (oral administration 3 mg/kg, 3 mg/kg), the “Bioavailability F” value is recorded as 52.4%.

Take `COCCNS(=O)(=O)Nc1ncnc(OCCOc2ncc(Br)cn2)c1-c1ccc2c(c1)OCO2` [WX013]: the IC50 against CYP2C9 was more than 50 µM; against CYP2C19 it was more than 50 µM; against CYP2D6, more than 50 µM; at CYP3A4 it was 18 µM; in data set [2] (substrate taurocholic acid, read-out: IC50, inhibitory effect on the bile salt transport pump (BSEP)) it was 43.8 µM. Further, the “inhibitory effect on the bile salt transport pump (BSEP) (in words)” value in data set [2] is recorded as “extremely weak”. The “The area” value was determined as 7.56 µM·h in data set [1] (intravenous injection 1 mg/kg) and 33.40 µM·h in data set [1] (oral administration 3 mg/kg). In data set [1] (intravenous injection 1 mg/kg, 1 mg/kg), this compound registered a Plasma clearance rate of 4.79 mL/min/kg. For the same compound, the clearance in data set [1] (male, beagle, dog, plasma, iv, 1 mg/kg, intravenous injection 1 mg/kg, read-out: Plasma clearance rate) is less than 5 mL/min/kg. In data set [1] (setting [4]), this compound gave a half-life of 0.86 h. This compound also came in with a Peak concentration in data set [1] (oral administration 3 mg/kg) of 12.75 µM. The compound also yielded a Peak time in data set [1] (oral administration 3 mg/kg) of 0.38 h. The “inhibitory effects on five main isozymes of CYP (in words)” value in data set [3] is “very weak”.
